Assay results: US20080167384A1, “Use of Zeaxanthin For the Treatment of Diseases of the Peripheral Retina” (priority 2005, published 2008)

Assay: Trial of zeaxanthin supplementation: macular pigment density monitored by heterochromatic flicker photometry (HCFP)
Assay type: in vivo
Settings: Zeaxanthin 20 mg/day, 6-12 months
Protocol: The usefulness of zeaxanthin for the purposes of the present invention can be seen from the results of a trial with a duration of 6-12 months carried out with 46 subjects which were randomized to two treatment groups: Zeaxanthin, 20 mg/day (n=23), and Placebo (n=23). Macular pigment density (MPD) during this trial was monitored monthly using heterochromatic flicker photometry (HCFP) by independently measuring luminances at central and eccentric (5°=reference) locations. MPD is then calculated by subtracting the luminance at the reference (=eccentric) location from the luminance at the retinal centre.

CC1=C(/C=C/C(C)=C/C=C/C(C)=C/C=C/C=C(C)/C=C/C=C(C)/C=C/C2=C(C)C[C@@H](O)CC2(C)C)C(C)(C)C[C@H](O)C1 [zeaxanthin]
rise of luminance at the eccentric reference location (HCFP, eccentric (5°) reference location): approximately 8%
rise of luminance at the central location (HCFP, retinal centre): approximately 8%
increase of macular pigment density (MPD) computed with the pre-supplementation eccentric reference luminance (actual central luminances minus pre-supplementation eccentric reference luminance): about 11%
